The results in this text go back to patent publication US20180185440A1, “PHARMACEUTICAL COMPOSITIONS AND METHODS FOR DELIVERY OF BREMELANOTIDE” (NOVEN PHARMACEUTICALS, INC., priority 2016, published 2018).

The data set can be described thus: in vivo delivery of bremelanotide by oral capsules (rats). On the set-up: species or system rat. To be noted: oral capsules with patches, FIG. 8. Here is the method:
The capsules of Examples 4-15 and Control 2, described above, were tested in vivo in a rat model. Capsules were administered by oral gavage administration using a dosing tool, followed by administration of 0.3 mL of water. Blood samples were drawn until 5 hours after administration and assayed for bremelanotide concentration as a function of time. FIGS. 5-8 illustrate the blood levels (pg/ml) of bremelanotide achieved (reported as the average from n=2 or 3 rats per formulation tested). […] The results illustrated in FIGS. 6 and 7 indicate that increasing the relative amount of penetration enhancer results in increased bremelanotide delivery.

Take `CCCCCCCCCCCCO[C@@H]1O[C@H](CO)[C@@H](O[C@H]2O[C@H](CO)[C@@H](O)[C@H](O)[C@H]2O)[C@H](O)[C@H]1O` [n-DMS, n-dodecyl-β-D-maltoside]: the “enhancer effect for bremelanotide through the GI tract” value is listed as “effective enhancers”.
